One assay concerns the target T1, α1A-adrenoceptor (Rattus norvegicus, UniProt P43140).
T1 construct: from tissue; host or cells: rat submaxillary gland membranes
T1 sequence (P43140 1-466): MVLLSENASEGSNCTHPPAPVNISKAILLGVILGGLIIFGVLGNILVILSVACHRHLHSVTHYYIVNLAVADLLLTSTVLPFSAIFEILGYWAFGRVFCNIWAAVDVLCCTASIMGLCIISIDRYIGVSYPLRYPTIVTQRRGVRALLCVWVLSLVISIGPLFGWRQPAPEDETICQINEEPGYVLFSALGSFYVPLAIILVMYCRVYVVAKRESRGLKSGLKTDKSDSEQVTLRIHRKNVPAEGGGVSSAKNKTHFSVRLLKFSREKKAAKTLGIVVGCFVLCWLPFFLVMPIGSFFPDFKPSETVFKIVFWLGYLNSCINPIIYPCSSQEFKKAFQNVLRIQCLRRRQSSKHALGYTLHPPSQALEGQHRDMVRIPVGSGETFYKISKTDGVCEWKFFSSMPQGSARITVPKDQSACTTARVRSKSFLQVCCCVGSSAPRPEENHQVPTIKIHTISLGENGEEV
Put plainly: Receptor binding assay, [3H]prazosin, rat submaxillary membranes. On the procedure: (§1) Receptor binding assays, (RBA's) were performed for native α1-adrenoceptors. Rat submaxillary and rat liver membrane preparations were used to assess the affinity for α1A and α1B subtypes, respectively. Aliquots of membrane protein ([…]) were incubated in a final volume of […] assay buffer (50 mM Tris, 0.5 mM EDTA at pH 7.4) with 0.5 nM [^3H] prazosin for 60 mins at 28 ° C. Reaction was stopped by rapid filtration on Millipore filters. Filters were dried and bound radioactivity counted. Non-specific binding was determined in the presence of 0.3 mM prazosin.

The target of the next assay is T2, α1B-adrenoceptor (Rattus norvegicus, UniProt P15823).
T2 construct: from tissue; host or cells: rat liver membranes
T2 sequence (P15823 1-515): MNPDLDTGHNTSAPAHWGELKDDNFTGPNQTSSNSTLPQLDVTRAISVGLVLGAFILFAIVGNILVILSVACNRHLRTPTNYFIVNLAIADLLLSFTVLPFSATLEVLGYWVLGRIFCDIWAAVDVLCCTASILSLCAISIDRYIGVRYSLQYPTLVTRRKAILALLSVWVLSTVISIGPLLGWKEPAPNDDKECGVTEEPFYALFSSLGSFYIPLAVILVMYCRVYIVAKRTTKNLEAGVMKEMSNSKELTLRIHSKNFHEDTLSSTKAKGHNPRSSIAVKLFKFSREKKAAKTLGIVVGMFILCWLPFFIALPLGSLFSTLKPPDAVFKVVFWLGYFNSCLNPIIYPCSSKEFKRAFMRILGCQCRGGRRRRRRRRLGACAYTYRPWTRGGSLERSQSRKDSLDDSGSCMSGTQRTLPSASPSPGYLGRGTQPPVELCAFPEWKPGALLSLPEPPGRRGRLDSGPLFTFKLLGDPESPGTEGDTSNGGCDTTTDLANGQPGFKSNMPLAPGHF
Description: Receptor binding assay, [3H]prazosin, rat liver membranes. As to the method: as §1

Assay [1] has as its target T3, α1A-adrenoceptor (prostate) (Rattus norvegicus, UniProt P43140).
T3 construct: Aorta, prostate and spleen tissues were isolated from urethane anaesthetized (1.5 gm/kg) male wistar rats; from tissue; host or cells: isolated prostate of male Wistar rats
T3 sequence (P43140 1-466): T1 sequence (P43140 1-466)
Description: In vitro functional assay, phenylephrine-induced contraction of isolated prostate. It is filed as cell-based. The source says: (§2) In order to study selectivity of action of the present compounds towards different α-adrenoceptor subtypes, the ability of these compounds to antagonize α1-adrenoceptor agonist induced contractile response of aorta (α1D), prostate (α1A) and spleen (α1B) was studied. Aorta, prostate and spleen tissues were isolated from urethane anaesthetized (1.5 gm/kg) male wistar rats. Isolated tissues were mounted in organ bath containing Krebs Henseleit buffer of the following composition (mM): NaCl 118; KCl 4.7; CaCl2 2.5; MgSO4·H2O 1.2; NaHCO3 25; KH2PO4 1.2; glucose 11.5. Buffer was maintained at 37° C. and aerated with a mixture of 95% O2 and 5% CO2. A resting tension of 2 g (aorta) or 1 g (spleen and prostate) was applied to tissues. Contractile response was monitored using a force displacement transducer and recorded on chart recorders. Tissues were allowed to equilibrate for 2 hours. At the end of equilibration period, concentration response curves to norepinephrine (aorta) and phenylephrine (spleen and prostate) were obtained in the absence and presence of the tested compound (at concentrations of 0.1, 1 and 10 μM). Antagonist affinity was calculated and expressed as PKB values in Table 1.

For assay [2], the target named is T4, α1B-adrenoceptor (spleen) (Rattus norvegicus, UniProt P15823).
T4 construct: Aorta, prostate and spleen tissues were isolated from urethane anaesthetized (1.5 gm/kg) male wistar rats; from tissue; host or cells: isolated spleen of male Wistar rats
T4 sequence (P15823 1-515): T2 sequence (P15823 1-515)
Description: In vitro functional assay, phenylephrine-induced contraction of isolated spleen. The assay is classed as cell-based.
Description: as §2

For another assay, the target named is T5, α1D-adrenoceptor (aorta) (Rattus norvegicus, UniProt P23944).
T5 construct: Aorta, prostate and spleen tissues were isolated from urethane anaesthetized (1.5 gm/kg) male wistar rats; from tissue; host or cells: isolated aorta of male Wistar rats
T5 sequence (P23944 1-561): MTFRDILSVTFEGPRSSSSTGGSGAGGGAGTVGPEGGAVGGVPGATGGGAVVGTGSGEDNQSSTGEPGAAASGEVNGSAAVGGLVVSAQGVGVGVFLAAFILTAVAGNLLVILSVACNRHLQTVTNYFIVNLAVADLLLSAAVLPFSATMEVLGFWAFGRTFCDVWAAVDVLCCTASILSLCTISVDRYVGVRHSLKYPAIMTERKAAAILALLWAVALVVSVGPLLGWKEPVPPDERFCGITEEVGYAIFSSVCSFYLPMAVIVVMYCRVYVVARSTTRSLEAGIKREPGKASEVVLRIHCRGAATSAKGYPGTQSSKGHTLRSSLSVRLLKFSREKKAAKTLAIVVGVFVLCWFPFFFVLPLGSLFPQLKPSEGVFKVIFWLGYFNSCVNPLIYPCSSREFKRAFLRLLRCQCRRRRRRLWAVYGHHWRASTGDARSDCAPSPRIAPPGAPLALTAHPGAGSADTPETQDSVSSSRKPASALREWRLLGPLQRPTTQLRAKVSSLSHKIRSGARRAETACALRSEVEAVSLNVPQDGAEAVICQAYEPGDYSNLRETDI
Put plainly: In vitro functional assay, norepinephrine-induced contraction of isolated aorta. The assay is classed as cell-based. The conditions noted are these: rat aorta, norepinephrine; read-out: In Vitro Functional Assay (pKB) α1D (converted).
Description: as §2

Where [3] appears, read: rat submaxillary membranes, 0.5 nM [3H]prazosin, read-out: RBA (Ki nM) α1A.
Setting [4] is: rat liver membranes, 0.5 nM [3H]prazosin, read-out: RBA (Ki nM) α1B.
The mark [5] stands for this setting: rat prostate, phenylephrine, read-out: In Vitro Functional Assay (pKB) α1A (converted).
The mark [6] stands for this setting: rat spleen, phenylephrine, read-out: In Vitro Functional Assay (pKB) α1B (converted).

Where two headings read alike, the source gives them in different places. A value given as a limit tells only on which side of the number the result lay.

The source of these data is patent US6410735B1, “1-(4-arylpiperazin-1-y1)-ω-[N-(α,ω-dicarboximido)]-alkanes useful as uro-selective α1-adrenoceptor blockers” (Ranbaxy Laboratories Limited, priority 1997, dated 2002).

One may read the Ki as the equilibrium dissociation constant of an inhibitor or competing ligand from its target.

As to `O=C1CCCC(=O)N1CCCN1CCN(c2ccc(Cl)cc2)CC1` [Compound 15, 1-[4-(4-Chlorophenyl)piperazin-1-yl]-3-(2,6-dioxopiperidin-1yl)propane], the figures for the Ki on α1A-adrenoceptor (setting [3]) and on α1B-adrenoceptor (setting [4]) were 520 nM and 201 nM, respectively. Moreover, the Kb in assay [1] (setting [5]) is 200 nM; in assay [2] (setting [6]), 1000 nM; at α1D-adrenoceptor (aorta), 631 nM.

For `Cc1ccc(N2CCN(CCCN3C(=O)CCC3=O)CC2)cc1C` [Compound 7, 1-[4-(3,4-Dimethylphenyl)piperazin-1-yl]-3-(2,5-dioxopyrrolidin-1-yl)propane], the Ki amounted to 450 nM on α1A-adrenoceptor (setting [3]) and 282 nM on α1B-adrenoceptor (setting [4]). Moreover, the values for the Kb (in assay [1] (setting [5]); in assay [2] (setting [6]); on α1D-adrenoceptor (aorta)) were 398 nM, 200 nM and 316 nM, respectively.

Take `COc1cccc(N2CCN(CCCN3C(=O)CCCC3=O)CC2)c1` [Compound 23, 1-[4-(3-Methoxyphenyl)piperazin-1yl]-3-(2,6-dioxopiperidin-1-yl)propane]: the inhibition constant Ki amounted to 2170 nM at α1A-adrenoceptor (setting [3]) and 940 nM on α1B-adrenoceptor (setting [4]).

Regarding `COc1ccc(N2CCN(CCCN3C(=O)CCCC3=O)CC2)cc1` [Compound 24, 1-[4-(4-Methoxyphenyl)piperazin-1-yl]-3-(2,6-dioxopiperidin-1-yl)propane], the results for the Ki on α1A-adrenoceptor and at α1B-adrenoceptor were below 2500 nM and above 2500 nM, respectively.

Regarding `O=C1CCCC(=O)N1CCCN1CCN(c2cccc(Cl)c2)CC1` [Compound 20, 1-[4-(3-Chlorophenyl)piperazin-1-yl]-3-(2,6-dioxopiperidin-1-yl)propane], the values for the Ki on α1A-adrenoceptor (setting [3]) and on α1B-adrenoceptor (setting [4]) were 22 nM and 113 nM, respectively. Moreover, the Kb in assay [1] (setting [5]) was 31.6 nM; at α1D-adrenoceptor (aorta), 25.1 nM.

In the case of `O=C1CCC(=O)N1CCCN1CCN(c2ccccn2)CC1` [Compound 4, 1-[4-(2-Pyridyl)piperazin-1-yl]-3-(2,5-dioxopyrrolidin-1-yl)propane], the Ki at α1A-adrenoceptor (setting [3]) amounted to 1660 nM; at α1B-adrenoceptor (setting [4]) it was 2100 nM. Also, the Kb at α1D-adrenoceptor (aorta) is 2510 nM.

Take `O=C1CCCC(=O)N1CCCN1CCN(c2ccc(F)cc2)CC1` [Compound 14, 1-[4-(4-Fluorophenyl)piperazin-1-yl]-3-(2,6-dioxopiperidin-1yl)propane]: the Ki on α1A-adrenoceptor (setting [3]) was found to be 67 nM; on α1B-adrenoceptor (setting [4]), 192 nM. The figures for the Kb (in assay [1] (setting [5]); in assay [2] (setting [6]); on α1D-adrenoceptor (aorta)) were 3.98 nM, 39.8 nM and 79.4 nM, respectively.

As for `O=C1CCC(=O)N1CCCN1CCN(c2ccc(F)cc2)CC1` [Compound 1, 1-[4-(4-Fluorophenyl)piperazin-1-yl]-3-(2,5-dioxopyrrolidin-1-yl)propane], the Ki at α1A-adrenoceptor (setting [3]) was above 2500 nM; on α1B-adrenoceptor (setting [4]) it was 1000 nM. The Kb in assay [1] is 79.4 nM; in assay [2], 100 nM; at α1D-adrenoceptor (aorta), 158 nM.

For the molecule `O=C1CCCC(=O)N1CCCN1CCN(c2ncccn2)CC1` [Compound 22, 1-[4-(2-Pyrimidyl)piperazin-1-yl]-3-(2,6-dioxopiperidin-1-yl)propane], the Ki on α1A-adrenoceptor (setting [3]) and at α1B-adrenoceptor (setting [4]) was above 2500 nM in each case. Further, the Kb in assay [1] (setting [5]) was 398 nM; at α1D-adrenoceptor (aorta), 100 nM.

For `O=C1CCC(=O)N1CCCN1CCN(c2cccc(C(F)(F)F)c2)CC1` [Compound 3, 1-[4-(3-Trifluoromethylphenyl)piperazin-1-yl]-3-(2,5-dioxopyrrolidin-1-yl)propane], the Ki was 1500 nM at α1A-adrenoceptor (setting [3]) and 1000 nM on α1B-adrenoceptor (setting [4]). The Kb in assay [2] was 63.1 nM; at α1D-adrenoceptor (aorta) it was 10000 nM.

Take `COc1ccccc1N1CCN(CCCN2C(=O)CC(c3ccccc3)C2=O)CC1` (stereo not shown) [Compound 26, 1-[4-(2-Methoxyphenyl)piperazin-1yl]-3-[2,5-dioxo-3-phenyl-pyrolidin-1-yl]propane]: the figures for the Ki at α1A-adrenoceptor (setting [3]) and at α1B-adrenoceptor (setting [4]) were 30 nM and 600 nM, respectively.

As for `O=C1CCCC(=O)N1CCCN1CCN(c2ccccn2)CC1` [Compound 19, 1-[4-(2-Pyridyl)piperazin-1-yl)-3-(2,6-dioxopiperidin-1-yl)propane], the Ki is 164 nM on α1A-adrenoceptor (setting [3]) and above 2500 nM at α1B-adrenoceptor (setting [4]). Also, the figures for the Kb (in assay [1] (setting [5]); at α1D-adrenoceptor (aorta)) were 398 nM and 200 nM, respectively.

For the molecule `COc1cccc(N2CCN(CCCN3C(=O)CCC3=O)CC2)c1` [Compound 11, 1-[4-(3-Methoxyphenyl)piperazin-1-yl]-3-(2,5-dioxopyrrolidin-1-yl)propane], the Ki on α1A-adrenoceptor (setting [3]) and on α1B-adrenoceptor (setting [4]) was above 2500 nM throughout.

For the molecule `COc1ccc(N2CCN(CCCN3C(=O)CCC3=O)CC2)cc1` [Compound 12, 1-[4-(4-Methoxyphenyl)piperazin-1yl]-3-(2,5-dioxopyrrolidin-1yl)propane], the Ki on α1A-adrenoceptor (setting [3]) and at α1B-adrenoceptor (setting [4]) was above 2500 nM each time.

As for `O=C1CCC(=O)N1CCCN1CCC(c2ccccc2)CC1` [Compound 27, 1-[4-(Phenyl)piperidin-1-yl]-3-[2,5-dioxopyrolidin-1-yl]propane], the Ki at α1A-adrenoceptor (setting [3]) stood at 1300 nM; at α1B-adrenoceptor (setting [4]), 2000 nM.

With `O=C1CCCC(=O)N1CCCN1CCN(c2cccc(C(F)(F)F)c2)CC1` [Compound 16, 1-[4-(3-Trifluoromethylphenyl)piperazin-1-yl]-3-(2,6-dioxopiperidin-1-yl)propane], the Ki on α1A-adrenoceptor (setting [3]) is 345 nM; at α1B-adrenoceptor (setting [4]), 765 nM. Besides, the Kb in assay [1] (setting [5]) is 316 nM; at α1D-adrenoceptor (aorta), 126 nM.

Take `O=C1CCC(=O)N1CCCN1CCN(c2ccccc2)CC1` [Compound 8, 1-[4-(Phenylpiperazin)-1-yl]-3-(2,5-dioxopyrrolidin-1-yl)propane]: the Ki at α1A-adrenoceptor stood at 57 nM; on α1B-adrenoceptor (setting [4]), 590 nM. For the same molecule, the Kb in assay [1] is 31.6 nM; on α1D-adrenoceptor (aorta), 251 nM.

Turning to `COc1ccccc1N1CCN(CCCCN2C(=O)CCCC2=O)CC1` [Compound 25, 1-[4-(2-Methoxyphenyl)piperazin-1yl]-4-(2,6-dioxopiperidin-1yl)butane], the Ki on α1A-adrenoceptor (setting [3]) came out at 1.6 nM; at α1B-adrenoceptor (setting [4]) it was 7.5 nM.
